Measurements taken from ChEMBL document CHEMBL4732177 (J Med Chem, 2021).
Numbered stars: 1 amine (or outer) side, 2 acyl side, 3 side chain; on linkers, the order of the positions; unused ones are H or OH. Bridge positions count the residues as written; N and C are the ends. Square brackets hold non-standard residues; d marks the D form. Peptide text beside a SMILES is read from it. ξ: configuration not given here. X3 = NCCCC[C@H](N)CN([C@@H](CCCCN)C(=O)[*:2])[*:1]; NMeR = CN[C@@H](CCCNC(=N)N)C(=O)O; Tle = CC(C)(C)[C@H](N)C(=O)O; ξP = O=C(O)C1CCCN1

What was measured:
[1] = molecular target: Neurotensin receptor type 2 (Homo sapiens, UniProt O95665); assay: Binding affinity to NTS2 (unknown origin)
Sequence of Neurotensin receptor type 2 (O95665 whole entry): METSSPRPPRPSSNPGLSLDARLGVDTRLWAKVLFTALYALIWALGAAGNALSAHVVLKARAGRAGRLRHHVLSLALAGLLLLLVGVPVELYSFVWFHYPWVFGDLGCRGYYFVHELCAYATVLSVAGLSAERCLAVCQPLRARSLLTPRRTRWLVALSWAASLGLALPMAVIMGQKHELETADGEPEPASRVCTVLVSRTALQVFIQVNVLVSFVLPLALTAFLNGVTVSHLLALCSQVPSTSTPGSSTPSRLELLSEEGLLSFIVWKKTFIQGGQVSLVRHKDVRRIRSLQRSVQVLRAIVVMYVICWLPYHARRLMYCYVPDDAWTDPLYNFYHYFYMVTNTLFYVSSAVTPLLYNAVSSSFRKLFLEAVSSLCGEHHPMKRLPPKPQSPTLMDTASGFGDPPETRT

[2] = Stability of compound in rat plasma assessed as half life at 1 mM incubated for 1 to 20 mins by UPLC-MS analysis; assay type: ADME, cell-free; settings: time 1-20 min
[3] = Stability of compound in rat CSF assessed as half life at 1 mM incubated for 24 hrs by UPLC-MS analysis; assay type: ADME, tissue-based, Cerebrospinal fluid
[4] = Cardiotoxicity in Sprague-Dawley rat assessed as decrease in mean arterial blood pressure at 0.1 mg/kg, iv measured up to 1000 seconds; assay type: toxicity, organism-based; settings: in vivo, time <=1000 sec
[5] = test system: Ileum; assay: Myorelaxant activity in Sprague-Dawley rat ileum assessed as reduction in carbachol-induced contractions by force transducer relaxation assay; assay type: functional, tissue-based
[6] = molecular target: T1, Neurotensin receptor type 1 (Homo sapiens, UniProt P30989); assay: Displacement of [125I]Tyr3-neurotensin from human recombinant NTS1 stably expressed in CHO cell membranes; parameters: species or system Cell membrane
T1 sequence (P30989 whole entry): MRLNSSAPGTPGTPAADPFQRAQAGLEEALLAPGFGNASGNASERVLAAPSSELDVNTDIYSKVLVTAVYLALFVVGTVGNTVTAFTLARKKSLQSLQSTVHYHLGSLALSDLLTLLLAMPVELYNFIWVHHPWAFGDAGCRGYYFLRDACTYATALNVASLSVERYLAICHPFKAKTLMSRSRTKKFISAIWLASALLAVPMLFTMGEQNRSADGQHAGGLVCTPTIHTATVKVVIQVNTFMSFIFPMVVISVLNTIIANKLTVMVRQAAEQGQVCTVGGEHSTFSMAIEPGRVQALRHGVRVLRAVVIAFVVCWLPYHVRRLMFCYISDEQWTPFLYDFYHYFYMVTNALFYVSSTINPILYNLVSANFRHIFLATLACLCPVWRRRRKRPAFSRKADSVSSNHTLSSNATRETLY

[7] = molecular target: T1, Neurotensin receptor type 1; assay: Displacement of [3H]-neurotensin from NTS1 in human HT-29 cell membrane incubated for 20 mins by liquid scintillation counter analysis; assay type: cell membranes
[8] = Induction of hypothermia in Sprague-Dawley rat assessed as drop in body temperature at 30 microg/kg, IT measured every 10 mins upto 60 mins by thermistor probe analysis; settings: in vivo, icv_or_intrathecal, 0.03 mg/kg, dose 30 µg/kg

CC[C@H](C)[C@H](NC(=O)[C@@H]1Cc2ccc(O)c(c2)C/C=C/CCCCCC[C@H](N)C(=O)N[C@@H](CCCCN)C(=O)N2CCC[C@H]2C(=O)N1)C(=O)N[C@@H](CC(C)C)C(=O)O
Ki [1]: 24 nM

CC[C@H](C)[C@H](NC(=O)[C@H](Cc1ccc(O)cc1)NC(=O)[C@@H]1CCCN1C(=O)[C@H](CCCNC(=N)N)NC(=O)[C@@H](N)CCCNC(=N)N)C(=O)N[C@@H](CC(C)C)C(=O)O
half-life at 1000 µM [2]: 1.6 min
half-life at 1000 µM [3]: 14.9 h
Activity [4]: <= 50 mmHg
Activity [5]: Dose-dependent effect
EC50 [5]: 3.9 nM

CC[C@H](C)[C@H](NC(=O)[C@@H]1Cc2ccc(cc2)OCCCCCC(=O)N[C@H](CCCNC(=N)N)C(=O)N2CCC[C@H]2C(=O)N1)C(=O)N[C@@H](CC(C)C)C(=O)O
Ki [6]: 450 nM

CC(C)C[C@H](NC(=O)[C@@H]1CCC(=O)NCC(=O)N(C)[C@@H](CCCNC(=N)N)C(=O)N[C@@H](CCCCN)C(=O)N2CCCC2C(=O)N[C@@H](Cc2c[nH]c3ccccc23)C(=O)N1)C(=O)O (stereo not given in full) (G[NMeR]K[ξP]WEL-OH; lactam N-6)
Ki [7]: 3500 nM

CCOC(=O)[C@H](CC(C)C)NC(=O)[C@@H](NC(=O)[C@H](Cc1c[nH]c2ccccc12)NC(=O)[C@@H]1CCCN1C(=O)[C@H](CCCCN)NC[C@@H](N)CCCCN)C(C)(C)C (H-[X3]PW[Tle]L-OEt)
deltaT [8]: 3 °C

CC[C@H](C)[C@H](NC(=O)[C@@H]1Cc2ccc(O)c(c2)C/C=C/CCCCCCC(=O)N[C@@H](CCCCN)C(=O)N2CCC[C@H]2C(=O)N1)C(=O)N[C@@H](CC(C)C)C(=O)O
Ki [1]: > 1 nM
